Data reported in BigSolDB 2.1.

O=C(O)/C=C/C(=O)O.OCCOCCN1CCN(C2=Nc3ccccc3Sc3ccccc32)CC1.OCCOCCN1CCN(C2=Nc3ccccc3Sc3ccccc32)CC1
solubility (mole fraction)
Details | 283.15 K | 288.15 K | 293.15 K | 298.15 K | 303.15 K | 308.15 K | 313.15 K | 318.15 K | 323.15 K
in 2-butanone | 0.000134 | 0.000164 | 0.000204 | 0.000251 | 0.000309 | 0.000382 | 0.000462 | 0.000581 | 0.000721
in MIBK | 0.000128 | 0.000153 | 0.000181 | 0.000224 | 0.000273 | 0.000328 | 0.000398 | 0.000475 | 0.000571
in MTBE | 4.36e-05 | 5.55e-05 | 6.74e-05 | 8.27e-05 | 0.000107 | 0.00013 | 0.000161 | 0.000192 | 0.000241
in THF | 0.000705 | 0.000873 | 0.00108 | 0.00133 | 0.00167 | 0.00208 | 0.00261 | 0.00323 | 0.00409
in dichloromethane | 0.000174 | 0.000213 | 0.000279 | 0.000365 | 0.00046 | 0.000597 | 0.000775 | – | –
in ethyl formate | 8.6e-05 | 0.000105 | 0.000125 | 0.000158 | 0.000197 | 0.00024 | 0.000291 | 0.000362 | 0.000445
in isopropyl acetate | 3.95e-05 | 4.7e-05 | 5.77e-05 | 6.96e-05 | 8.3e-05 | 0.000104 | 0.000127 | 0.000158 | 0.000191
in n-heptane | 1.59e-05 | 1.94e-05 | 2.44e-05 | 3.02e-05 | 3.61e-05 | 4.57e-05 | – | 6.96e-05 | –
in n-hexane | 1.46e-05 | 1.77e-05 | 2.17e-05 | 2.75e-05 | 3.3e-05 | 4.17e-05 | 5.15e-05 | 6.53e-05 | 8.16e-05
in n-propanol | 0.000244 | 0.000317 | 0.000396 | 0.000497 | 0.000614 | 0.000797 | 0.00101 | 0.00126 | 0.0016
in toluene | 3.01e-05 | 3.49e-05 | 4.19e-05 | 4.98e-05 | 5.82e-05 | 7.09e-05 | 8.5e-05 | 0.000102 | 0.000121
